# Measured values reported in US10875875B2, “Propionic acid derivatives and methods of use thereof” (Aviara Pharmaceuticals, Inc., priority 2017, dated 2020).
# Key:
# α4β1 = α4β1 (Homo sapiens, UniProt P05556+P13612); experiment: α4β1 integrin inhibition, IC50; format: binding; conditions: read-out: α4β1 IC50
# α4β7 = target: T1, α4β7 (Homo sapiens, UniProt P13612+P26010); experiment: α4β7 integrin inhibition, IC50; format: binding
# T1 sequence (P13612 34-1032): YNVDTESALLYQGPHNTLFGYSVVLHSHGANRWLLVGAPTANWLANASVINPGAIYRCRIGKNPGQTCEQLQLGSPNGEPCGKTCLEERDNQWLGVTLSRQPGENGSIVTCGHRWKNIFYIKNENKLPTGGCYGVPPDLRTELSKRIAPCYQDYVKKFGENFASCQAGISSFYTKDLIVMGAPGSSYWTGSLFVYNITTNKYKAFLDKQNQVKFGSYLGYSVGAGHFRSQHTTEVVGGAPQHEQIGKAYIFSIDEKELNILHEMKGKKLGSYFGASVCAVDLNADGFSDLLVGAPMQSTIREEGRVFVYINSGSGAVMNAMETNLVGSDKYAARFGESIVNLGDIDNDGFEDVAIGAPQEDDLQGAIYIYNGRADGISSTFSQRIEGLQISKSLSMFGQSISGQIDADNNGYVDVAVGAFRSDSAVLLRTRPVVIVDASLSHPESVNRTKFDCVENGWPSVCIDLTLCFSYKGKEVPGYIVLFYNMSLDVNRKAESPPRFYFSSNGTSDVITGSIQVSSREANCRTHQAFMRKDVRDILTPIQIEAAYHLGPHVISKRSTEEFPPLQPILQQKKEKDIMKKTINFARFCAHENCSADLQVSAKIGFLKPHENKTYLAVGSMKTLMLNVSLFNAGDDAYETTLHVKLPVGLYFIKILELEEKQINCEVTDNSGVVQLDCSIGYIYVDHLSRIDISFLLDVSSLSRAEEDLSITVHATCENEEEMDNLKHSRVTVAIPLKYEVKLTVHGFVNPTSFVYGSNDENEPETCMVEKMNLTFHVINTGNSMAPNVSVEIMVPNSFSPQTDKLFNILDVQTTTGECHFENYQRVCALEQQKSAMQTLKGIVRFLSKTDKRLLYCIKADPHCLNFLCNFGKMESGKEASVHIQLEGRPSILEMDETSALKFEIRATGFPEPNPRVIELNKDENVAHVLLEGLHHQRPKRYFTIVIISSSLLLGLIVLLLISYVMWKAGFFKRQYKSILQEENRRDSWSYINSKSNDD
# T1 sequence (P26010 20-798): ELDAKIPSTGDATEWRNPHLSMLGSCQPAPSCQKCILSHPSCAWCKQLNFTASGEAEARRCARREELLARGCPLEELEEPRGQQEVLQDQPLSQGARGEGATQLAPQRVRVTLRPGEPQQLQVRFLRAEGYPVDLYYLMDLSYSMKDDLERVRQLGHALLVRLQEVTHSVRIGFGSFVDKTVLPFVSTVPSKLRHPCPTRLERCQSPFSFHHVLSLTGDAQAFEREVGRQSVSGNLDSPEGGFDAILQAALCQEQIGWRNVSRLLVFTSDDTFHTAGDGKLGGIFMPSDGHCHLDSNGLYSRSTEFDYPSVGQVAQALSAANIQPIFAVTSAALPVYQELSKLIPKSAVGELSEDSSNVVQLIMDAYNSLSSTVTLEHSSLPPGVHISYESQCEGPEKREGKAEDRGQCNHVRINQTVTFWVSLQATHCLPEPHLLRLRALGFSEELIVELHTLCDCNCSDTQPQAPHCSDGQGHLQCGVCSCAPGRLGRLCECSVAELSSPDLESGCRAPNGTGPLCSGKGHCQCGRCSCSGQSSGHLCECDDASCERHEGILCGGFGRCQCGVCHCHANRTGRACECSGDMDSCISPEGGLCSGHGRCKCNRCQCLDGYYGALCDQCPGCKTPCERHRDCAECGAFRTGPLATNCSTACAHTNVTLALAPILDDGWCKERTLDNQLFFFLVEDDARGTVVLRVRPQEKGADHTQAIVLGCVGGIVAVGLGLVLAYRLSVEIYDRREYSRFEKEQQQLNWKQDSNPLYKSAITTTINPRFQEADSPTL
# α4β1, sequence (P05556 21-798, one chain of several): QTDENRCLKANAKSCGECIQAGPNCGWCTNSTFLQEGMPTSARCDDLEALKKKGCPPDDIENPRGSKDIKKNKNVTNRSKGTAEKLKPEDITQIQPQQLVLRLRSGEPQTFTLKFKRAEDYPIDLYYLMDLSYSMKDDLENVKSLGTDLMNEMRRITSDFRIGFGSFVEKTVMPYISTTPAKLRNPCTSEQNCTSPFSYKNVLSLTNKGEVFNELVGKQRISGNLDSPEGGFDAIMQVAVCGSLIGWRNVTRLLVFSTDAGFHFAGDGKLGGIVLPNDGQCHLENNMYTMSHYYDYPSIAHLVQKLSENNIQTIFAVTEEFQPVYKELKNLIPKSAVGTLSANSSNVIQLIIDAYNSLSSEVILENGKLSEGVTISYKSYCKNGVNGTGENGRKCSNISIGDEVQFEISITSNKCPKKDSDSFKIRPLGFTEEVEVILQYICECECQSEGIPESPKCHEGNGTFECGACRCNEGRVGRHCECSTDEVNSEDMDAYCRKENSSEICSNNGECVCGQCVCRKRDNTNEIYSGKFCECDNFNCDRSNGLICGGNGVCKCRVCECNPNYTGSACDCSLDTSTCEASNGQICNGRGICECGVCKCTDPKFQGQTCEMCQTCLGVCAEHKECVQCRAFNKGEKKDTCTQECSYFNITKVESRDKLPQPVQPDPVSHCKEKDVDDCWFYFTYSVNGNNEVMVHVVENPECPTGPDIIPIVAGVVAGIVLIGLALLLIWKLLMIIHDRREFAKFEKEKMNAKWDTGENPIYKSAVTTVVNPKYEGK
Structure (SMILES),IC50 (α4β1) [nM],IC50 (α4β7) [nM]
"Cc1cc(O)c(NC(=O)N[C@@H](CC(=O)O)c2cccc(-c3ccc(F)cc3F)c2)c(=O)n1C [1-487, sodium (S)-3-(2′,4′-difluorobiphenyl-3-yl)-3-(3-(1,6-dimethyl-4-oxido-2-oxo-1,2-dihydropyridin-3-yl)ureido)propanoate]",< 20,> 200
"Cc1cccc(C)c1-c1ccc(F)c([C@H](CC(=O)O)NC(=O)Nc2c(O)ccn(C)c2=O)c1 [1-590, sodium (S)-3-(4-fluoro-2′,6′-dimethylbiphenyl-3-yl)-3-(3-(1-methyl-4-oxido-2-oxo-1,2-dihydropyridin-3-yl)ureido)propanoate]",< 20,< 20
"Cc1cccc(C)c1-c1cc([C@H](CC(=O)O)NC(=O)Nc2c(O)ccn(C)c2=O)ccc1F [1-561, sodium (S)-3-(6-fluoro-2′,6′-dimethylbiphenyl-3-yl)-3-(3-(1-methyl-4-oxido-2-oxo-1,2-dihydropyridin-3-yl)ureido)propanoate]",< 20,< 20
"Cc1cccc(C)c1-c1cccc([C@H](CC(=O)O)NC(=O)Nc2c(O)cc3n(c2=O)CCC3)c1 [1-583, sodium (S)-3-(2′,6′-dimethylbiphenyl-3-yl)-3-(3-(7-oxido-5-oxo-1,2,3,5-tetrahydroindolizin-6-yl)ureido)propanoate]",< 20,< 20
"Cc1cc(-c2cccc(OC(F)(F)F)c2)cc([C@H](CC(=O)O)NC(=O)Nc2c(O)ccn(C)c2=O)c1 [1-572, sodium (S)-3-(5-methyl-3′-(trifluoromethoxy)biphenyl-3-yl)-3-(3-(1-methyl-4-oxido-2-oxo-1,2-dihydropyridin-3-yl)ureido)propanoate]",< 20,> 200
"Cn1ccc(O)c(NC(=O)N[C@@H](CC(=O)O)c2ccc(-c3ccc(F)cc3F)s2)c1=O [1-562, sodium (S)-3-(5-(2,4-difluorophenyl)thiophen-2-yl)-3-(3-(1-methyl-4-oxido-2-oxo-1,2-dihydropyridin-3-yl)ureido)propanoate]",< 20,> 200
"O=C(O)C[C@H](NC(=O)Nc1c(O)cc2n(c1=O)CCC2)c1cccc(-c2ccc(F)cc2F)c1 [1-629, sodium (S)-3-(2′,4′-difluorobiphenyl-3-yl)-3-(3-(7-oxido-5-oxo-1,2,3,5-tetrahydroindolizin-6-yl)ureido)propanoate]",< 20,> 200
"Cn1ccc(O)c(NC(=O)N[C@@H](CC(=O)O)c2cccc(-c3c(Cl)cccc3Cl)c2)c1=O [1-537, sodium (S)-3-(2′,6′-dichlorobiphenyl-3-yl)-3-(3-(1-methyl-4-oxido-2-oxo-1,2-dihydropyridin-3-yl)ureido)propanoate]",< 20,< 200
"Cc1cccc(C)c1-c1cccc([C@H](CC(=O)O)NC(=O)Nc2c(O)cc(C)n(C)c2=O)c1 [1-550, sodium (S)-3-(3-(1,6-dimethyl-4-oxido-2-oxo-1,2-dihydropyridin-3-yl)ureido)-3-(2′,6′-dimethylbiphenyl-3-yl)propanoate]",< 20,< 200
"Cc1noc(C)c1-c1cccc([C@H](CC(=O)O)NC(=O)Nc2c(O)ccn(C)c2=O)c1 [1-560, sodium (S)-3-(3-(3,5-dimethylisoxazol-4-yl)phenyl)-3-(3-(1-methyl-4-oxido-2-oxo-1,2-dihydropyridin-3-yl)ureido)propanoate]",< 20,> 200
"COc1ccc([C@H](CC(=O)O)NC(=O)Nc2c(O)ccn(C)c2=O)cc1-c1c(C)cccc1C [1-533, sodium (S)-3-(6-methoxy-2′,6′-dimethylbiphenyl-3-yl)-3-(3-(1-methyl-4-oxido-2-oxo-1,2-dihydropyridin-3-yl)ureido)propanoate]",< 20,< 200
"COc1cccc(-c2cc([C@H](CC(=O)O)NC(=O)Nc3c(O)c(C)cn(C)c3=O)ccc2OC)c1 [1-527, sodium (S)-3-(3′,6-dimethoxybiphenyl-3-yl)-3-(3-(1,5-dimethyl-4-oxido-2-oxo-1,2-dihydropyridin-3-yl)ureido)propanoate]",< 20,> 200
"COc1cc(-c2c(C)cccc2C)cc([C@H](CC(=O)O)NC(=O)Nc2c(O)ccn(C)c2=O)c1 [1-579, sodium (S)-3-(5-methoxy-2′,6′-dimethylbiphenyl-3-yl)-3-(3-(1-methyl-4-oxido-2-oxo-1,2-dihydropyridin-3-yl)ureido)propanoate]",< 20,< 20
